Assay results from patent US20060135491A1, “Vitamin D3 analog useful for the treatment of osteoporosis” (priority 2004, published 2006).

Legend:
[1] = molecular target: T1, Human Vitamin D Binding Protein (hDBP) (Homo sapiens, UniProt P02774); experiment: Affinity for human vitamin D binding protein, displacement of [3H]1α,25(OH)2D3; details: relative affinity at 50% displacement of [3H]1α,25(OH)2D3; 1α,25(OH)2D3 assigned 100%; hDBP 0.18 μM, 3 hours at 4° C.
T1 sequence (P02774 17-474): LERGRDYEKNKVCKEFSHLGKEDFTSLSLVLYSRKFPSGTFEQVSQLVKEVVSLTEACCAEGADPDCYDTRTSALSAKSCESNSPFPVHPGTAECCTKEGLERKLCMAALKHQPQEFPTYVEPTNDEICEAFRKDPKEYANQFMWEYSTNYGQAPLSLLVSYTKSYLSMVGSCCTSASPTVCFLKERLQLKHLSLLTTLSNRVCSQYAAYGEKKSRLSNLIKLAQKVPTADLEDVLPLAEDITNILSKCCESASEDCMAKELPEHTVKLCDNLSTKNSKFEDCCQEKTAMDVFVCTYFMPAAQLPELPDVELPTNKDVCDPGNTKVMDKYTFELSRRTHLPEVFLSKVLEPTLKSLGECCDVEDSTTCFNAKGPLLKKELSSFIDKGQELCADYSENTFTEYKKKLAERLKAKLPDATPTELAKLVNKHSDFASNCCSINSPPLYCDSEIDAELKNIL
Method: The solution was incubated for 3 hours at 4° C. Final phase separation was obtained by adding 0.5 mL of cold dextran-coated charcoal.

[2] = tested on: MCF-7 cells; experiment: Cell proliferation, [3H]thymidine incorporation; type: cell-based; details: in comparison with 1α,25(OH)2D3 as control (100% activity); 72 hours incubation
Method: The compound of the present invention was evaluated for its effect on cell proliferation. […] The cultures were maintained at 37° C. in an atmosphere of humidified air containing 5% CO2. The MCF-7 cells were seeded at approximately 5×10^3 cells/well in the DMEM modified medium in a 96-well microtiter plate. […] Finally, 1 μCi of [^3H]thymidine was added to each well and the cells were harvested after a further 4 hour incubation period. The cells were harvested with a Packard Harvester and the cell count measured by a Packard Topcount System.

[3] = tested on: HL-60 cells; experiment: Cell differentiation, NBT reduction assay; type: cell-based; details: in comparison with 1α,25(OH)2D3 as control (100% activity); 4 days
Method: The vitamin D analog of the present invention was evaluated for its effect on cell differentiation. Falcon tissue chambers were seeded with 4×10^4 cells/cm of HL-60 cells using RPMI 1640 medium supplemented with […] FCS and gentamycin (50 μg/mL),in a final cell volume of 5 mL. The cultures were maintained at 37° C. in an atmosphere of humidified air containing 5% CO2. After 24 hours incubation, the control 1αa,25(OH)2D3 and the compound to be tested were each dissolved in ethanol and added to the cell culture with the final concentration being less than 0.2%. After 4 days, the dishes were shaken to lose adherent cells. The cells were then washed twice in RPMI medium, counted, and then assayed for differentiation markers (NBT reduction assay). Superoxide production was measured as NBT reducing activity as described by Ostrem et al. in Proc. Natl. Acad. Sci. USA, (1987) 84: 2610-2614. HL-60 cells at 1×10^6/mL were mixed with an equal volume of freshly prepared solution of phorbol 12-myristate 13-acetate (200 ng/mL) and NBT (2 μg/mL) and incubated for 30 minutes at 37° C. The percentage of cells containing black formazan deposits was determined using a hemacytometer. […]

[4] = tested on: ovariectomized Sprague-Daley rats; experiment: Three-month treatment efficacy in ovariectomized rats; type: in vivo; details: oral
Method: Efficacy was tested in 6 month old Sprague-Daley rats which were sham-operated or ovariectomized (OVX). Ovariectomized animals were sacrificed after two months as a pre-treatment control group, with remaining animals being treated for three months with vehicle or with (1R,3R)-5-{(E)-(2R,5R)-2-[2-(4-hydroxy-4-methylpentyl)-spiro[4.5]dec-7-ylidene]-ethylidene}-cyclohexane-1,3-diol (at dosages of 0.3, 1,3 or 10 μg/kg/day respectively) by oral administration. At the end of treatment, blood was obtained by cardiac puncture for evaluation of serum calcium levels. Hypercalcemia was identified as a mean value 10% greater than the OVX-vehicle group. Bone efficacy was measured using micro-CT (Scanco μCT 40) evaluation of the vertebral cancellous bone volume compared to either the final OVX-group and/or the pre-treatment OVX group.

[5] = molecular target: T2, Vitamin D receptor (VDR) (Sus scrofa, UniProt A3RGC1); details: relative affinity at 50% displacement of [3H]1α,25(OH)2D3; 1α,25(OH)2D3 assigned 100%; porcine intestinal mucosa supernatant, 4° C., 20 hours
T2 sequence (A3RGC1 1-427): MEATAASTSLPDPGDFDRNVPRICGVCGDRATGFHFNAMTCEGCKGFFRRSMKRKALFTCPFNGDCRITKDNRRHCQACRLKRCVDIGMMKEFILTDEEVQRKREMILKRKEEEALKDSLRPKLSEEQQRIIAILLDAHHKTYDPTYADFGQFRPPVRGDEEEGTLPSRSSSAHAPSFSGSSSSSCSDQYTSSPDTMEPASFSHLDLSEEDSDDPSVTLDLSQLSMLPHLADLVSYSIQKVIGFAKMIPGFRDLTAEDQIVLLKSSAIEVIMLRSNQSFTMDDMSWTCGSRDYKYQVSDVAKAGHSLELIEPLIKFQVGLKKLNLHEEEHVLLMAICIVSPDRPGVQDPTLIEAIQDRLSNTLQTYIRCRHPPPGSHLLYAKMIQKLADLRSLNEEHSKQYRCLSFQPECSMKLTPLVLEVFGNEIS

[6] = tested on: NMRI mice; experiment: In vivo determination of calcium levels; details: for Femur Ca / Body Weight / Serum Ca: 7 consecutive days
Method: Eight week old, male NMRI mice were obtained from the Animal Center of Leuven (Belgium) and fed a vitamin D-replete diet (0.2% calcium, 1% phosphate, 2000 U vitamin D/kg; Hope Farms, Woerden, The Netherlands). […] The control group was injected with vehicle (arachis oil). […] The following parameters were evaluated: serum calcium and femur calcium. Serum calcium was measured by a microcolorimetric assay (Sigma, St. Louis, Mo.). Femurs were removed and femur calcium content was measured in HCl-dissolved bone ash (obtained by heating for 24 hours in an oven at 100° C.), using the same technique as for serum calcium.

% hDBP binding [1] [%] | hypercalcemia (mean serum calcium 10% greater than OVX-vehicle group) ([4]; three months, at doses that increased vertebral bone volume) | % VDR binding [5] [%] | Compound | MCF-7 cell proliferation, percentage activity (at 50% of the dose response) [2] [%] | HL-60 cell differentiation, percentage activity (at 50% of the dose response) [3] [%] | vertebral cancellous bone volume (micro-CT) ([4]; OVX rats, three months, 0.3, 1,3 or 10 μg/kg/day, vs pre-treatment and final OVX groups) | Femur Ca ([6]; 0.4 μg/kg/day i.p.) [mg] | Femur Ca ([6]; 5 μg/kg/day i.p.) [mg] | Femur Ca ([6]; 10 μg/kg/day i.p.) [mg] | Body Weight ([6]; 0.1 μg/kg/day i.p.) [g] | Femur Ca ([6]; 0.1 μg/kg/day i.p.) [mg] | Serum Ca ([6]; 0.1 μg/kg/day i.p.) [mg/dL] | Body Weight ([6]; 0.2 μg/kg/day i.p.) [g] | Femur Ca ([6]; 0.2 μg/kg/day i.p.) [mg] | Serum Ca ([6]; 0.2 μg/kg/day i.p.) [mg/dL] | Body Weight ([6]; 0.4 μg/kg/day i.p.) [g] | Serum Ca ([6]; 0.4 μg/kg/day i.p.) [mg/dL] | estimated serum calcium level as compared with 1α,25(OH)2D3 ([6]; 1α,25(OH)2D3 assigned a value of 100%, i.p., 7 days) [%]
3 | did not induce hypercalcemia | 10 | CC(C)(O)CCC[C@@H]1CC[C@]2(CCC/C(=C\C=C3C[C@@H](O)C[C@H](O)C3)C2)C1 [(1R,3R)-5-{(E)-(2R, 5R)-2-[2-(4-hydroxy-4-methylpentyl)-spiro[4.5]dec-7-ylidene]-ethylidene}-cyclohexane-1,3-diol] | 450 | 200 | significantly increase vertebral bone volume above pre-treatment and final OVX groups | 10.1 | 11.3 | 12.3 | – | – | – | – | – | – | – | – | –
– | – | – | C=C1/C(=C\C=C2/CCC[C@]3(C)[C@@H]([C@H](C)CCCC(C)(C)O)CC[C@@H]23)C[C@@H](O)C[C@@H]1O [1α,25(OH)2D3, 1α,25-dihydroxyvitamin D3] | – | 100 | – | 8.9 | – | – | 30.5 | 10.9 | 13.3 | 27.8 | 10.3 | 14.1 | 23.2 | 18.2 | 100
